≈ marks a conversion by molar mass, not a printed value. Calls of active or inactive are those of the source. The rule behind the calls is not given here. Bridge positions count the residues as written; N and C are the ends. Square brackets hold non-standard residues; d marks the D form. Peptide text beside a SMILES is read from it. S5 = C=CCCC[C@](C)(N)C(=O)O
Assays:
Escherichia coli [1] = assay: In vivo antibacterial activity against Escherichia coli intraperitoneally injected into C57BL/6 mouse peritonitis model assessed as reduction in bacterial load in kidney at 2.5 mg/kg, ip measured after 48 hrs relative to control; assay type: functional, organism-based
Escherichia coli [2] = assay: Induction of multiple envelope stress pathway related pathways in Escherichia coli assessed as change in WcaC gene expression at 12.5 uM measured after 2 hrs incubation by PCR analysis; assay type: functional, organism-based
[3] = Stability of the compound in human serum assessed as peptide degradation by RP-HPLC analysis; assay type: ADME, cell-free; details: read-out: T50 (converted)
Cell membrane [4] = assay: Induction of Inner membrane damage in Escherichia coli assessed as increase in […] ONPG intensity at 5 uM measured after 24 hrs incubation by microplate reader based inner membrane permeability assay; assay type: subcellular
Escherichia coli [5] = assay: In vivo antibacterial activity against Escherichia coli intraperitoneally injected into C57BL/6 mouse peritonitis model assessed as reduction in bacterial load in lung at 2.5 mg/kg, ip measured after 48 hrs relative to control; assay type: functional, organism-based
Escherichia coli [6] = assay: Antibacterial activity against Escherichia coli assessed as reduction in CFU at 5 uM measured upto 60 mins by Time-killing assay; assay type: functional, organism-based
Escherichia coli [7] = assay: Induction of multiple envelope stress pathway related pathways in Escherichia coli assessed as change in WcaB gene expression at 12.5 uM measured after 2 hrs incubation by PCR analysis; assay type: functional, organism-based
Escherichia coli [8] = assay: Induction of metabolism related pathways in Escherichia coli assessed as energetic metabolism pathway mRNAs at 12.5 uM measured after 2 hrs incubation by PCR analysis; assay type: functional, organism-based
Shigella flexneri = assay: Antibacterial activity against Shigella flexneri 301 assessed as inhibition of bacterial growth measured after 24 hrs by broth microdilution method; assay type: functional
[9] = Stability of the compound in human serum assessed as retention time by RP-HPLC analysis; assay type: ADME, cell-free
Escherichia coli [10] = assay: Induction of assembly related pathways in Escherichia coli assessed as change in BamB gene expression at 12.5 uM measured after 2 hrs incubation by PCR analysis; assay type: functional, organism-based
Pseudomonas aeruginosa [11] = assay: Antibacterial activity against Pandrug-resistant Pseudomonas aeruginosa assessed as inhibition of bacterial growth measured after 24 hrs by broth microdilution method; assay type: functional
Escherichia coli [12] = assay: Induction of multiple envelope stress pathway related pathways in Escherichia coli assessed as change in WcaL gene expression at 12.5 uM measured after 2 hrs incubation by PCR analysis; assay type: functional, organism-based
Escherichia coli [13] = assay: In vivo antibacterial activity against Escherichia coli intraperitoneally injected into C57BL/6 mouse peritonitis model assessed as reduction in bacterial load in blood at 2.5 mg/kg, ip measured after 48 hrs relative to control; assay type: functional, organism-based
Escherichia coli [14] = assay: Induction of assembly related pathways in Escherichia coli assessed as change in BamA gene expression at 12.5 uM measured after 2 hrs incubation by PCR analysis; assay type: functional, organism-based
Staphylococcus aureus = assay: Antibacterial activity against Staphylococcus aureus ATCC 25923 assessed as inhibition of bacterial growth measured after 24 hrs by broth microdilution method; assay type: functional
[15] = Toxicity in C57BL/6 mouse assessed as death at 50 mg/kg, ip measured on day 4; assay type: organism-based; details: in vivo, 96 h, time 4 day
Escherichia coli [16] = assay: Induction of metabolism related pathways in Escherichia coli assessed as lipid metabolism pathway mRNAs at 12.5 uM measured after 2 hrs incubation by PCR analysis; assay type: functional, organism-based
Escherichia coli [17] = assay: In vivo antibacterial activity against Escherichia coli intraperitoneally injected into C57BL/6 mouse peritonitis model assessed as reduction in bacterial load in liver at 2.5 mg/kg, ip measured after 48 hrs relative to control; assay type: functional, organism-based
Acinetobacter baumannii = assay: Antibacterial activity against Pandrug-resistant Acinetobacter baumannii assessed as inhibition of bacterial growth measured after 24 hrs by broth microdilution method; assay type: functional
[18] = Toxicity in C57BL/6 female mouse assessed as apparent inflammatory exudates ([…], neutrophiles, macrophages) in lungs at 25 mg/kg, ip measured during 14 days of study by H and E staining based analysis; assay type: organism-based; details: in vivo, 336 h, time 14 day
Escherichia coli [19] = assay: Induction of assembly related pathways in Escherichia coli assessed as change in OmpW gene expression at 12.5 uM measured after 2 hrs incubation by PCR analysis; assay type: functional, organism-based
[20] = Toxicity in C57BL/6 mouse assessed as increase in body weight at 25 mg/kg, ip measured during 14 days of study; assay type: organism-based; details: in vivo, 336 h, time 14 day
Escherichia coli [21] = assay: Induction of LPS transport pathway related genes in Escherichia coli assessed as change in LptA gene expression at 12.5 uM measured after 2 hrs incubation by PCR analysis; assay type: functional, organism-based
Escherichia coli [22] = assay: Induction of LPS transport pathway related genes in Escherichia coli assessed as change in LptD gene expression at 12.5 uM measured after 2 hrs incubation by PCR analysis; assay type: functional, organism-based
Mus musculus [23] = assay: In vivo anti-inflammatory efficacy in Escherichia coli intraperitoneally injected into C57BL/6 mouse peritonitis model assessed as reduction in TNF-alpha level in blood at 2.5 mg/kg, ip measured after 48 hrs by ELISA; assay type: functional, organism-based
[24] = Hemolytic activity in human RBC assessed as hemolysis incubated for 1 hr by microplate reader; assay type: toxicity, cell-based, Erythrocyte; details: erythrocyte, 1 h
Escherichia coli [25] = assay: Induction of LPS transport pathway related genes in Escherichia coli assessed as change in LptB gene expression at 12.5 uM measured after 2 hrs incubation by PCR analysis; assay type: functional, organism-based
[26] = Toxicity in C57BL/6 female mouse assessed as haemorrhagic point and blurred white pulp boundary in liver at 25 mg/kg, ip measured during 14 days of study by H and E staining based analysis; assay type: organism-based; details: in vivo, 336 h, time 14 day
Salmonella typhimurium = assay: Antibacterial activity against Salmonella typhimurium assessed as inhibition of bacterial growth measured after 24 hrs by broth microdilution method; assay type: functional, Salmonella enterica subsp. enterica serovar Typhimurium; details: Salmonella enterica
Escherichia coli [27] = assay: Induction of outer membrane synthesis related pathways in Escherichia coli assessed as change in OmpT gene expression at 12.5 uM measured after 2 hrs incubation by PCR analysis; assay type: functional, organism-based
Mus musculus [28] = assay: In vivo anti-inflammatory efficacy in Escherichia coli intraperitoneally injected into C57BL/6 mouse peritonitis model assessed as reduction in IL-6 level in blood at 2.5 mg/kg, ip measured after 48 hrs by ELISA; assay type: functional, organism-based
Escherichia coli [29] = assay: Induction of outer membrane synthesis related pathways in Escherichia coli assessed as change in OmpX gene expression at 12.5 uM measured after 2 hrs incubation by PCR analysis; assay type: functional, organism-based
[30] = Toxicity in C57BL/6 mouse assessed as death at 25 mg/kg, ip measured during 14 days of study; assay type: organism-based; details: in vivo, 336 h, time 14 day
Cell membrane [31] = assay: Induction of Outer membrane damage in Escherichia coli assessed as pore formation and surface rupture at 5 uM measured after 24 hrs by SEM imaging analysis; assay type: subcellular
Escherichia coli [32] = assay: Induction of outer membrane synthesis related pathways in Escherichia coli assessed as change in OmpC gene expression at 12.5 uM measured after 2 hrs incubation by PCR analysis; assay type: functional, organism-based
Escherichia coli [33] = assay: Induction of assembly related pathways in Escherichia coli assessed as change in BamD gene expression at 12.5 uM measured after 2 hrs incubation by PCR analysis; assay type: functional, organism-based
Pseudomonas aeruginosa [34] = assay: Antibacterial activity against Carbapenem-resistant Pseudomonas aeruginosa assessed as inhibition of bacterial growth measured after 24 hrs by broth microdilution method; assay type: functional

## CC[C@H](C)[C@H](NC(=O)CNC(=O)[C@H](CC(=O)O)NC(=O)[C@H](CCCNC(=N)N)NC(=O)[C@@H](NC(=O)[C@H](CC(N)=O)NC(=O)[C@H](CCC(N)=O)NC(=O)CNC(=O)[C@@H](NC(=O)[C@H](CCCCN)NC(=O)[C@H](CCC(=O)O)NC(=O)[C@@H](NC(=O)[C@H](CCCCN)NC(=O)[C@H](CCCCN)NC(=O)[C@H](Cc1ccccc1)NC(=O)[C@H](CC(C)C)NC(=O)[C@H](CCCCN)NC(=O)[C@H](Cc1c[nH]c2ccccc12)NC(=O)[C@H](CCCCN)NC(C)=O)[C@@H](C)CC)C(C)C)[C@@H](C)CC)C(=O)N[C@H](C(=O)N[C@@H](CCCCN)C(=O)N[C@@H](C)C(=O)NCC(=O)N1CCC[C@H]1C(=O)N[C@@H](C)C(=O)N[C@H](C(=O)N[C@@H](C)C(=O)N[C@H](C(=O)N[C@H](C(=O)NCC(=O)N[C@@H](CCC(N)=O)C(=O)N[C@@H](C)C(=O)N[C@@]1(C)CCC/C=C\CCC[C@@](C)(C(N)=O)NC(=O)[C@H](C)NC(=O)[C@H]([C@@H](C)CC)NC(=O)[C@H](CCC(N)=O)NC1=O)C(C)C)C(C)C)C(C)C)[C@@H](C)CC (Ac-KWKLFKKIEKVGQNIRDGIIKAGPAVAVVGQA[S5]QIA[S5]-NH2; staple (Z) 33-37)
Escherichia coli [1]
  Activity: Active; Compound Showed Enhanced Bacterial Elimination Than Cec-0 And Compound Showed Comparable Bacterial Elimination To Polymyxin B
Escherichia coli [2]
  Activity: Active
[3]
  half-life: 591 min
Cell membrane [4]
  Activity: Active
Escherichia coli [5]
  Activity: Active; Compound Showed Enhanced Bacterial Elimination Than Cec-0
Escherichia coli [6]
  Activity: Active
Escherichia coli [7]
  Activity: Active
Escherichia coli [8]
  Activity: Active
Shigella flexneri
  MIC: 1.56 µM (≈ 6.34 µg/mL)
[9]
  Retention_time: 25.17 min
Escherichia coli [10]
  Activity: Active
Pseudomonas aeruginosa [11]
  MIC: 12.5 µM (≈ 50.8 µg/mL)
Escherichia coli [12]
  Activity: Active
Escherichia coli [13]
  Activity: Active; Compound Showed Enhanced Bacterial Elimination Than Cec-0 And Compound Showed Comparable Bacterial Elimination To Polymyxin B
Escherichia coli [14]
  Activity: Active
Staphylococcus aureus
  MIC: 3.13 µM (≈ 12.7 µg/mL)
[15]
  Activity: Toxic
Escherichia coli [16]
  Activity: Active
Escherichia coli [17]
  Activity: Active; Compound Showed Enhanced Bacterial Elimination Than Cec-0 And Compound Showed Comparable Bacterial Elimination To Polymyxin B
Acinetobacter baumannii
  MIC: < 0.78 µM
[18]
  Activity: Non-toxic
Escherichia coli [19]
  Activity: Active
[20]
  Activity: Toxic
Escherichia coli [21]
  Activity: Active
Escherichia coli [22]
  Activity: Active
Mus musculus [23]
  Activity: Active
[24]
  Activity: Non-toxic
Escherichia coli [25]
  Activity: Active
[26]
  Activity: Non-toxic
Salmonella typhimurium
  MIC: 3.13 µM (≈ 12.7 µg/mL)
Escherichia coli [27]
  Activity: Active
Mus musculus [28]
  Activity: Active
Escherichia coli [29]
  Activity: Active
[30]
  Activity: Non-toxic
Cell membrane [31]
  Activity: Active
Escherichia coli [32]
  Activity: Active
Escherichia coli [33]
  Activity: Active
Pseudomonas aeruginosa [34]
  MIC: > 100 µM
